Results on two compounds are retold here after US6784177B2, “Methods using hydralazine compounds and isosorbide dinitrate or isosorbide mononitrate” (Nitro Med, Inc., priority 1999, dated 2004).

Like-named read-outs stand apart in the source and are kept apart here.

For experiment [1], the system named is male patients with heart failure. In words: V-HeFT II quality of life, Heart Condition Assessment (HCA) questionnaire. Type of experiment: in vivo, human. The following applies: black patients, at 12 months, negative = improved, positive = worsened, p=0.043. As to the method: “Quality of life” refers to one or more of a persons ability to walk, climb stairs, do errands, work around the house, participate in recreational activities, and/or not requiring rest during the day, and/or the absence of sleeping problems or shortness of breath. The quality of life was measured using the Heart Condition Assessment (HCA) questionnaire. The questionnaire was self-administered after brief standardization instructions. The score was obtained by summing the ranks of the responses to each question.
(§1) Drug administration was double-blind.

For experiment [2] the test system is unchanged. Kind of experiment: V-HeFT II change in plasma norepinephrine (radioenzymatic assay). In kind it is in vivo, human. Conditions: either racial group.
Excerpt: as §1

Experiment [3] has the same test system. Kind of experiment: V-HeFT II mortality (Kaplan-Meier, log-rank). Type of experiment: in vivo, human.
Excerpt: as §1

Experiment [4] has the same test system. Kind of experiment: V-HeFT II change in radiographic cardiothoracic ratio. In kind it is in vivo, human. The following applies: white patients.
Excerpt: as §1

For experiment [5], the system named is black and white subgroups. Kind of experiment: black:white relative risk in placebo and enalapril groups (trial not named). Type of experiment: in vivo, human. Conditions: enalapril group; placebo group 1.15.
Experiment [6] relates to male patients with heart failure. In words: V-HeFT II hospitalization. In kind it is in vivo, human.
Excerpt: as §1

Experiment [7] has the same test system. Kind of experiment: V-HeFT II change in systolic blood pressure. Type of experiment: in vivo, human.
Excerpt: as §1

Experiment [8] shares this test system. Kind of experiment: V-HeFT II peak exercise oxygen consumption (MVO2), bicycle-ergometer exercise test. Type of experiment: in vivo, human. As to the method: “Oxygen consumption” was measured during a progressive maximal bicycle-ergometer exercise test taken while the expired air was collected continuously to monitor oxygen consumption. […] Patients with pulmonary diseases, obstructive valvular diseases and the like, tend to have a low oxygen consumption. An increase in a patient's oxygen consumption typically results in the patient's increased exercise tolerance and implies that the patient would have an improved quality of life.
as §1

Experiment [9] has the same test system. Kind of experiment: V-HeFT II change in radionuclide left ventricular ejection fraction. Type of experiment: in vivo, human. The following applies: both racial groups.
Excerpt: as §1

Experiment [10] shares this test system. In words: V-HeFT I hospitalization. Type of experiment: in vivo, human.
Excerpt: as §1

Experiment [11] shares this test system. The following applies: V-HeFT I.
Protocol: Baseline measurements were restricted to the test done at the time of randomization. Change in measurements from baseline were compared between black and white patients using t-tests performed for each scheduled follow-up. […] Survival curves were compared by the log-rank test. Survival in black and white patients was further analyzed by presence or absence of a history of hypertension.
In the present invention, an interaction analysis between race and treatment was performed for both V-HeFT I and II, adjusting for baseline imbalances.
Male patients were screened for participation in the study on the basis of a history of heart failure or documentation of left ventricular enlargement or dysfunction by chest radiography, echocardiography or radionuclide ventriculography. The specific ventricular imaging requirement for entry was one of the following: a radiographic cardiothoracic ratio >0.55, an echocardiographic left ventricular end-diastolic diameter >2.7 cm/m^2 body surface area or radionuclide left ventricular ejection fraction <0.45. In addition, patients were eligible for entry only if they had reduced maximal exercise tolerance. This was defined as a measured peak oxygen consumption (VO2)<25 ml/kg per min during a progressive bicycle ergometer exercise test.
Nearly all patients were receiving background therapy with diuretic and/or digoxin. […] Full doses of the vasodilator regimens in V-HeFT I were prazosin 5 mg four times daily, the combination of hydralazine 75 mg and isosorbide dinitrate 40 mg four times daily, or placebo. […] Drug administration was double-blind. All patients were studied for the duration of the trial and for a minimum of 6 months or until death.

As to `CCOC(=O)[C@H](CCc1ccccc1)N[C@@H](C)C(=O)N1CCC[C@H]1C(=O)O` [enalapril], the “quality of life score (HCA questionnaire)” value in experiment [1] is “+1.04”. Also, in [2], the “change in plasma norepinephrine (PNE)” value is “not apparent”. In addition, the “deaths among treated patients” value in experiment [3] (black patients, of 106 on enalapril, of 109 on hydralazine-isosorbide dinitrate) was determined as 39; in [3] (white patients, of 292 on enalapril, of 282 on hydralazine-isosorbide dinitrate) it was 90. In addition, the “annual mortality rate (AMR)” value was 12.8% in [3] (black patients, p=NS) and 11.0% in experiment [3] (white patients, log rank p=0.02). In addition, the “mortality reduction with enalapril compared to hydralazine and isosorbide dinitrate” value in [3] (white patients with a history of hypertension, p<0.02) was “significant mortality reduction”; in experiment [3] (whites or blacks without hypertensive history, blacks with hypertensive history), “did not differ”. In experiment [4], the “reduction in radiographic heart size (cardiothoracic ratio) during follow-up” value is “persisted through 3 years”. For the same compound, in experiment [5], the “black:white relative risk” value is on record as 1.34. The “patients hospitalized for CHF (%)” value was found to be 22.6% in experiment [6] (black patients) and 17.5% in experiment [6] (white patients). For the same compound, the “patients hospitalized for any reason (%)” value was 61.3% in [6] (black patients) and 62.0% in [6] (white patients). Further, the “systolic blood pressure after the initial fall” value is recorded as “recovered by 13 weeks” in [7] (black patients) and “remained lower thereafter” in experiment [7] (white patients, 4.5 years of follow-up). Further, the “mean improvement (increase) from baseline in MVO2, adjusted for differences in baseline characteristics” value in experiment [8] (black patients, 12 months, p=0.15) turned out to be 0.6 mL/h/kg. For the same compound, the “decrease from baseline in MVO2” value in [8] (black patients, 12 months, unadjusted, p=0.19) was determined as 2.82 mL/h/kg. For the same compound, the “effect on oxygen consumption (MVO2)” value in [8] (both black and white patients, 13 weeks) is on record as “did not improve”. In addition, the “radionuclide ejection fraction (EF) response” value in experiment [9] was “rose”.

`COc1cc2nc(N3CCN(C(=O)c4ccco4)CC3)nc(N)c2cc1OC` [prazosin]: the “patients hospitalized for CHF (%)” value in experiment [10] (black patients) amounted to 23. %; in experiment [10] (white patients), 31.5%. In addition, the “patients hospitalized for any reason (%)” value was determined as 40.4% in experiment [10] (black patients) and 35.4% in experiment [10] (white patients). For the same compound, the “annual mortality rate (AMR)” value in [11] (black patients, placebo AMR 17.3%) is 15.4%; in experiment [11] (white patients, placebo AMR 18.8%, p=NS) it was 22.1%. Further, in experiment [11] (white patients, vs placebo (FIG. 2B)), the “treatment benefit on survival” value was “absence of demonstrable treatment benefit”.
